Laboratory results from PMC2662524 (Biochemistry, 2008).

Tests used:
cytochrome P450eryF [1] = biological target: T1, cytochrome P450eryF (Saccharopolyspora erythraea, UniProt Q00441); assay: ligand-induced spin shift; assay type: binding
cytochrome P450eryF [2] = biological target: T1, cytochrome P450eryF; assay: lifetime FRET from F7GA to heme; assay type: binding

T1 sequence (Q00441 whole entry): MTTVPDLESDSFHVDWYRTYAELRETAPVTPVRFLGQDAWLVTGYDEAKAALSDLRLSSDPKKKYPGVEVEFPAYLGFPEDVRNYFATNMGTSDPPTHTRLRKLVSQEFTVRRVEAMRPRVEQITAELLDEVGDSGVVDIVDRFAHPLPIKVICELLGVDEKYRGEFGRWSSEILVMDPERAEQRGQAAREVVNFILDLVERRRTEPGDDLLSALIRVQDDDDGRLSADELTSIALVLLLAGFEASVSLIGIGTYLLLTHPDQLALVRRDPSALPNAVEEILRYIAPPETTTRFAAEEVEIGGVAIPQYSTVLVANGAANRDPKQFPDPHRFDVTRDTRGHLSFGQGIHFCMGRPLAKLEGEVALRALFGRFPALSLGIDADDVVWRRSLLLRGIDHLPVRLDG

SMILES | Kd (cytochrome P450eryF [1]) [nM] | Kd (cytochrome P450eryF [2]) [nM]
CCN(CC)c1ccc2nc3c4ccccc4c(=O)cc-3oc2c1 [Nile Red] | 3200 ± 200 | –
CCCCNc1ccc2c3c(cccc13)C(=O)N(CCCC)C2=O [F7GA, 2-butyl-6-(butylamino)-1H-benzo[de]isoquinoline-1,3(2H)-dione] | – | 140 ± 60
